In ChEMBL document CHEMBL3046306, “Synthesis of new compounds derived from metronidazole and amino acids and their esters as antiparasitic agents” (Med Chem Res, 2012) one finds MNTC and IC50 data, which are given here for twelve compounds.

A short description of series [1]: Cytotoxicity against Chlorocebus aethiops (African green monkey) Vero cells assessed as concentration at which cell growth as in negative control after 48 hr by hemocytometer. Format: cell-based. The following applies: chlorocebus sabaeus, read-out: Activity.
Series [2] in a line: Cytotoxicity against Homo sapiens (human) Hep2 cells assessed as concentration at which cell growth as in negative control after 48 hr by hemocytometer. The format is cell-based. The following applies: HEp-2 cells, read-out: Activity.
A further series deals with Giardia intestinalis. Kind of series: Antiparasitic activity against Giardia intestinalis WB strain ATCC 30957 using trypan blue staining by hemocytometer. The following applies: Giardia duodenalis. Format: functional, organism-based.
The subject of another series is Entamoeba histolytica. Kind of series: Antiparasitic activity against Entamoeba histolytica HK-9 strain ATCC 30015 using trypan blue staining by hemocytometer. Format: functional, organism-based.

Turning to `CCOC(=O)[C@H](C)NC(=O)Cn1c([N+](=O)[O-])cnc1C`, the MNTC at 48 h in series [1] is 72.2 µM; in series [2] it was 69.7 µM. Further, the IC50 with Giardia intestinalis came to 2.18 µM; in the series on Entamoeba histolytica it was 2.1 µM.

In the case of `Cc1ncc([N+](=O)[O-])n1CC(=O)N[C@@H](Cc1ccccc1)C(=O)O`, the IC50 in the series on Giardia intestinalis is 22.2 µM; in the series with Entamoeba histolytica, 23.4 µM.

For `Cc1ncc([N+](=O)[O-])n1CC(=O)N[C@@H](Cc1c[nH]c2ccccc12)C(=O)O`, the IC50 in the series on Giardia intestinalis came out at 18 µM; in the series with Entamoeba histolytica, 17.2 µM.

On to `COC(=O)[C@H](Cc1ccccc1)NC(=O)Cn1c([N+](=O)[O-])cnc1C`, for which the IC50 with Giardia intestinalis was found to be 44.4 µM; with Entamoeba histolytica, 22.1 µM.

With `Cc1ncc([N+](=O)[O-])n1CC(=O)N[C@@H](Cc1cnc[nH]1)C(=O)O`, the IC50 in the series on Giardia intestinalis came out at 17.2 µM; in the series on Entamoeba histolytica, 16.2 µM.

Take `COC(=O)[C@H](Cc1c[nH]c2ccccc12)NC(=O)Cn1c([N+](=O)[O-])cnc1C`: the IC50 was found to be 16.6 µM in the series with Giardia intestinalis and 8.29 µM with Entamoeba histolytica.

Regarding `COC(=O)[C@H](CC(=O)O)NC(=O)Cn1c([N+](=O)[O-])cnc1C`, the MNTC at 48 h in series [1] was 314 µM; in series [2], 304 µM. In addition, the IC50 came out at 2.26 µM with Giardia intestinalis and 2.21 µM with Entamoeba histolytica.

For the compound `Cc1ncc([N+](=O)[O-])n1CCO` [METRONIDAZOLE], the MNTC at 48 h in series [1] worked out at 903 µM; in series [2], 869 µM. The concentration for half-maximal inhibition (IC50) in the series on Giardia intestinalis was 5.17 µM; in the series on Entamoeba histolytica, 4.4 µM.

Turning to `CCOC(=O)C(CCCCNC(=O)Cn1c([N+](=O)[O-])cnc1C)NC(=O)Cn1c([N+](=O)[O-])cnc1C` (configuration not stated), the values for the IC50 in the series with Giardia intestinalis and with Entamoeba histolytica were 3.84 µM and 3.95 µM, respectively.

Consider `COC(=O)[C@H](Cc1ccc(O)cc1)NC(=O)Cn1c([N+](=O)[O-])cnc1C`, for which the values for the IC50 in the series on Giardia intestinalis and with Entamoeba histolytica were 17.8 µM and 18.3 µM, respectively.

Turning to `COC(=O)[C@H](Cc1cnc[nH]1)NC(=O)Cn1c([N+](=O)[O-])cnc1C`, the IC50 in the series with Giardia intestinalis was determined as 8.93 µM; with Entamoeba histolytica it was 8.91 µM.

On to `COC(=O)[C@@H]1CCCN1C(=O)Cn1c([N+](=O)[O-])cnc1C`, for which the results for the MNTC at 48 h in series [1] and in series [2] were 204 µM and 169 µM, respectively. Moreover, the IC50 with Giardia intestinalis stood at 2.7 µM; with Entamoeba histolytica, 2.54 µM.
